Experimental data from patent US20240180955A1, “FIBER SUPPLEMENTATION PROTECTS FROM ANTIBIOTIC-INDUCED GUT MICROBIOME DYSBIOSIS BY MODULATING REDOX METABOLISM” (Brown University, priority 2022, published 2024).
Structures can show the parent of a compound that is named as a salt.

What was measured:
E. coli (MG1655) = assay: NAD+/NADH reporter: E. coli reporter assay; format: cell-based, Escherichia coli
Experimental: NAD+/NADH reporter: E. coli reporter assay. The NAD+/NADH reporter plasmid (Liu et al., 2019) was transformed into E. coli (MG1655) for growth and fluorescence assays. Overnight cultures of E. coli were diluted 1:1000 in fresh Luria Broth. The diluted cultures were allowed to grow to 0.2 OD before treatment with amoxicillin and metformin. Fluorescence and growth (in OD) were measured in parallel using two plate readers. Data is shown with fluorescence normalized to growth and as separate growth and fluorescence curves.
This ratio is a stand in for cellular bioenergetics with a high ratio indicative of increased catabolism
The inventors then treated these bacteria with metformin and measured their growth and fluorescence. […] Dwyer et al. (2014). […] Stynen et al. (2018).

E. coli = assay: Amoxicillin kill curve in E. coli; format: cell-based, Escherichia coli; details: aerobic, increasing concentrations of metformin
Experimental: Bacterial strains. Bacteroides thetaiotaomicron (VPI-5482) can be obtained from the American Type Culture Collection (ATCC; Manassas, VA, USA). Bacteroides theta was cultured in modified Gifu Anaerobic Media (mGAM, HyServe). Escherichia coli (MG1655) was cultured in Luria Broth (Fisher Scientific, Waltham, MA, USA). Anaerobic assays were cultured in a BactronEZ anaerobic chamber (Sheldon Manufacturing, Cornelius, OR, USA) under an atmosphere of 5% H2, […]. All bacteria were grown at 37° C.
Amoxicillin kill curves in E. coli and B. theta. Kill Curves for E. coli were done in an aerobic environment and for B. theta in the anaerobic chamber. Overnight cultures s were grown in Luria Broth (E. coli) or mGAM (B. theta). Overnight cultures were diluted 1:100 in fresh media. They were allowed to grow to 0.2 OD before treatment with amoxicillin and metformin. Samples were grown at 37° C. and plated every two hours for six hours in serial dilutions. Colony forming units (CFUs) were measured the following day.
The inventors then tested the survival of bacteria treated with metformin against amoxicillin. […] These assays were conducted aerobically in E. coli.

[1] = system: Bacteroides thetaiotaomicron; assay: Amoxicillin kill curve in B. theta; format: cell-based; details: anaerobic
Experimental: Bacteroides theta was cultured in modified Gifu Anaerobic Media (mGAM, HyServe). […] Anaerobic assays were cultured in a BactronEZ anaerobic chamber (Sheldon Manufacturing, Cornelius, OR, USA) under an atmosphere of 5% H2, 5% N2, and 90% CO2. All bacteria were grown at 37° C.

[2] = Mass spectrometry for metformin measurement in serum, liver and cecum; format: in vivo, C57BL/6J mice; details: low-fiber glucose diet with 100 mg/kg metformin hydrochloride, five days, LC/MS
Experimental: (§1) Metformin in vivo supplementation. Metformin hydrochloride (Fisher Scientific, Waltham, MA, USA) was added to powdered mouse diet at 100 mg/kg (w/w) or 0.1% in the glucose diet and homogenized before administration to mice via feeding jars. In the chow diet metformin was added 50 mg/kg (w/w) or 0.05%.
Mass spectrometry for metformin measurement. Plasma, liver and cecal samples were collected for from the sacrificed mice in the two metformin supplementation assays (n=6 mice per group, twenty-four mice/assay). The liver was perfused with phosphate-buffered saline upon collection and the tissue was homogenized with reverse osmosis-purified water at 1 mg/10 μL using a Bead Ruptor at speed 30 for five minutes. Supernatants from the homogenate was collected after centrifugation at 2000×g for five minutes to pellet beads. Cecal contents were also homogenized with reverse osmosis-purified water at 1 mg/10 μL, and supernatants were used for analysis. Metformin extraction and mass spec protocol modified from Chaudhari et al. (2020). For metformin extraction, 30 μL of cecal/tissue homogenates or plasma were added to 70 μL of D6-metformin ([sequence]) at 250 μM concentration in methanol. […]
Metformin in biological samples after spiking with D6-metformin ([sequence]) and extraction was quantitated with HPLC-MS on an Ultimate 3000, Dionex coupled to Q Executive Classic (Thermo Fisher) with ESI interface. […]

gut microbiome = assay: Metformin in vivo supplementation during antibiotic treatment, 16S rRNA sequencing of cecal contents; parameters: species or system C57BL/6J mice
Experimental: Mouse assays. C57BL/6J mice following the habituation period were given one week to acclimate to the control 0-fiber diet with 20% (w/w) glucose. After this diet acclimation period, mice were randomized into new cages for each diet/antibiotic condition. Amoxicillin was administered via drinking water (25 mg/kg/day) ad libitum for the specified timepoints. All drinking water was filter-sterilized before administration. Fecal samples were collected at the specified timepoints and stored at −20° C. until nucleic acid extraction. Cecum contents were collected directly into bead-bashing tubes with DNA/RNA shield (Zymo Research, Irvine, CA, USA) and stored at −80° C. for nucleic acid extraction. For the redox potential (eH) and pH measurements, total cecal contents were immediately flash frozen in liquid nitrogen and lyophilized and stored at −80° C. until measurements were taken.
16S rRNA amplicon preparation and sequencing. The 16S rRNA V4 hypervariable region was amplified from total DNA using the barcoded 515F forward primer and the 806R reverse primers from the Earth Microbiome Project (Thompson et al., 2017). Amplicons were generated using 5× Phusion High-Fidelity DNA Polymerase under these cycling conditions: (1) initial denaturation at 98 °C for thirty seconds, followed by (2) twenty-five cycles of 98 °C for ten seconds, 57 °C for thirty seconds, and 72° C. for thirty seconds, then (3) a final extension at 72 °C for five minutes. Gel electrophoresis was used to visualize amplicons and pooled in equimolar amounts. The pooled amplicon library was submitted to the Rhode Island Genomics and Sequencing Center at the University of Rhode Island (Kingston, RI, USA) for sequencing on the Illumina MiSeq platform. Amplicons were paired-end sequenced (2×250 bp) using the 600-cycle kit with standard protocols. Raw reads were deposited in the NCBI Sequence Read Archive (SRA).
16S sequencing analysis. Raw 16S rRNA reads were first demultiplexed with idemp. Quality filtering, trimming, de-noising with DADA2 (q2-dada2). […] Merging was done using the Qiime2 pipeline (version 2019.10). […] Ribosomal sequence variants were aligned with mafft (q2-alignment). […] Phylogenetic tree construction was done with fasttree2 (q2-phylogeny). […] Taxonomic assignment was conducted using the pre-trained Naive Bayes classifier and the q2-feature-classifier (Bokulich et al., 2018) trained on the SILVA 132 99% database. […] Alpha diversity (Shannon, Faith's phylogenetic diversity) and beta diversity (Bray-Curtis dissimilarity) were calculated using the phyloseq package (version 1.30.0) in R (version 3.6.2).
as §1
The inventors used metformin supplemented diets and supplemented the control low-fiber diet with 100 mg/kg of metformin hydrochloride (MPI Chemicals) during antibiotic treatment for five days.
The inventors then extracted DNA from the cecal contents of mice Day 1 and Day 5 following antibiotic treatment and used 16S rRNA sequencing to investigate changes in gut microbiome composition.

[3] = Redox potential (eH) and pH measurements of cecal contents; format: in vivo, C57BL/6J mice; details: mice on standard chow diet
Experimental: Mouse assays. C57BL/6J mice following the habituation period were given one week to acclimate to the control 0-fiber diet with 20% (w/w) glucose. After this diet acclimation period, mice were randomized into new cages for each diet/antibiotic condition. Amoxicillin was administered via drinking water (25 mg/kg/day) ad libitum for the specified timepoints. All drinking water was filter-sterilized before administration. Fecal samples were collected at the specified timepoints and stored at −20° C. until nucleic acid extraction. Cecum contents were collected directly into bead-bashing tubes with DNA/RNA shield (Zymo Research, Irvine, CA, USA) and stored at −80° C. for nucleic acid extraction. […]
Redox potential and pH measurements. Redox potential was measured according to a modified protocol from Husson (2012); Husson et al. (2016) with an Ag/AgCl Reference electrode (Radiometer analytical E21M002, Radiometer Analytical Pt plate electrode 5×5 mm M241 Pt), and a voltmeter. […] The samples were blinded and measured in random order. […]
The platinum electrode was inserted into each sample. […] The same cecal extracts were used to measure pH using a PH meter and for subsequent validation with ATP assays, 16S rRNA sequencing and quantitative polymerase chain reaction (qPCR) bacterial load. […]

murine gut microbiome = assay: Oats diet with amoxicillin challenge, 16S rRNA sequencing of fecal pellets (Example 11); format: in vivo, C57BL/6J mice; details: Day 5, across each diet group
From the text: In Example 11, mice were fed LabDiet 5001 (LD01; LabDiet, St. Louis, MO, USA) feed pellets for a 2-week habituation period. For experimental diets, a custom base diet reflecting standard mouse chow fiber content was designed (Envigo-Teklad, Madison, WI, USA). The base diet modifies AlN-93G (TD.180901) by removing all cellulose and reducing cornstarch content while adjusting micro- and macronutrient contents so the diet could be an 80% base for 20% (wt/wt) supplementation with other carbon sources. Buffalo cornstarch (Ingredion Incorporated, IL, USA) was used to increase host accessibility and reduce cornstarch availability in the cecum and lower gastrointestinal tract. […]
In Example 11, total DNA and RNA was liberated from bacteria by bead-bashing fecal or cecum samples for 5 min on a Bead Ruptor 96 (Omni International, Kennesaw, GA). […] Nucleic acids were eluted in nuclease-free water and measured using the double-stranded DNA high sensitivity (dsDNA-HS) or RNA-HS kits on a Qubit 3.0 fluorometer (Thermo Fisher Scientific, Waltham, MA, USA).
In Example 11, the 16S rRNA gene V4 region was amplified from fecal total DNA using barcoded 515F forward and indexed 806R reverse primers as described by Parada, Needham, & Fuhrman, Environ. […] Amplicons were verified by gel electrophoresis, measured on the Qubit 3.0 and pooled in equimolar concentrations. […]

| Compound | NADH reporter fluorescence (NADH/NAD+ ratio), effect on the antibiotic-induced increase (E. coli (MG1655); E. coli treated with amoxicillin and metformin) | survival of bacteria challenged with amoxicillin (E. coli) | protection from amoxicillin (kill curve) [1] | metformin levels in cecum, liver and serum [2] | Desulfobacterota and Cyanobacteria phyla abundance (gut microbiome; all metformin treatment groups, low-fiber glucose diet and laboratory chow) | antibiotic-induced decrease in diversity (Shannon) (gut microbiome; glucose diet with metformin, Day 1 and Day 5 of antibiotic treatment) | Proteobacteria at Day 5 of antibiotic treatment (gut microbiome; glucose diet, metformin plus antibiotic, Day 5) | bacterial diversity, metformin alone (gut microbiome; glucose diet, no antibiotics, Day 5) | initial spike in Proteobacteria during antibiotic treatment (gut microbiome; glucose low-fiber diet, Day 1) | reduction in microbial diversity during antibiotic treatment (gut microbiome; laboratory chow with metformin) | NADH reporter fluorescence (NADH/NAD+ ratio) (E. coli (MG1655); E. coli, antibiotic treatment) | chemical redox of cecal contents [3] | relative proportion of Bacteroidota and Verrucomicrobiota compared to controls (murine gut microbiome) |
| --- | --- | --- | --- | --- | --- | --- | --- | --- | --- | --- | --- | --- | --- |
| CN(C)C(=N)N=C(N)N [metformin, Metformin hydrochloride] | suppressed this increase | improved the survival of bacteria | significant protection from amoxicillin | significantly higher in the cecum compared to the liver and serum | complete depletion | smaller decrease in diversity | bloom in Proteobacteria in the Moraxellaceae family | significant changes in bacterial diversity | prevented the initial spike in Proteobacteria | smaller reduction in microbial diversity |  |  |  |
| CC1(C)S[C@@H]2[C@H](NC(=O)[C@H](N)c3ccc(O)cc3)C(=O)N2[C@H]1C(=O)O [amoxicillin, Amoxicillin] |  |  |  |  |  |  |  |  |  |  | significantly increased fluorescence | increased the chemical redox | Bacteroidota receded and that of Verrucomicrobiota increased |
